# Measured values: ChEMBL document CHEMBL4706525, “Designing an eEF2K-Targeting PROTAC small molecule that induces apoptosis in MDA-MB-231 cells” (Eur J Med Chem, 2020)
# The source made the active and inactive calls. The calls are words filed in the database; no cut-off is given here.
# How the values were obtained:
# [1] = target: Protein cereblon/Eukaryotic elongation factor 2 kinase (Homo sapiens) (UniProt O00418+Q96SW2); assay: Protac activity at eEF2K/E3 ubiquitin ligase in human MDA-MB-231 cells assessed as degradation of eEF2K at 200 uM measured after 24 hrs by western blot assay; assay type: cell-based
# Sequence of Protein cereblon/Eukaryotic elongation factor 2 kinase (Homo sapiens) (Q96SW2 whole entry, looked up, one chain of several): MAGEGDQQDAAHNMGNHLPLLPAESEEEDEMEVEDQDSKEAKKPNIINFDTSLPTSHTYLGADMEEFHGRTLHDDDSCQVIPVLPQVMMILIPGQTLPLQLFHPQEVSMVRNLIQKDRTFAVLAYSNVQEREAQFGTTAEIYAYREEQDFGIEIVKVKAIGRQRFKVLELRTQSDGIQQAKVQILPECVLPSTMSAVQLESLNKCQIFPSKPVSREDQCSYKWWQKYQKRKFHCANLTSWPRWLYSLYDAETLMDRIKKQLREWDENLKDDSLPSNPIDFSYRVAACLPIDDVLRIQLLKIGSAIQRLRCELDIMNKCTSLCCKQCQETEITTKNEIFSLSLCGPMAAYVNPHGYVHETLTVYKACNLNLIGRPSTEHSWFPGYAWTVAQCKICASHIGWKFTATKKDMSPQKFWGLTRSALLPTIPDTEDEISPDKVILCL
# [2] = target: T1, Eukaryotic elongation factor 2 kinase (Homo sapiens, UniProt O00418); assay: Inhibition of eEF2K (unknown origin)
# T1 sequence (O00418 whole entry): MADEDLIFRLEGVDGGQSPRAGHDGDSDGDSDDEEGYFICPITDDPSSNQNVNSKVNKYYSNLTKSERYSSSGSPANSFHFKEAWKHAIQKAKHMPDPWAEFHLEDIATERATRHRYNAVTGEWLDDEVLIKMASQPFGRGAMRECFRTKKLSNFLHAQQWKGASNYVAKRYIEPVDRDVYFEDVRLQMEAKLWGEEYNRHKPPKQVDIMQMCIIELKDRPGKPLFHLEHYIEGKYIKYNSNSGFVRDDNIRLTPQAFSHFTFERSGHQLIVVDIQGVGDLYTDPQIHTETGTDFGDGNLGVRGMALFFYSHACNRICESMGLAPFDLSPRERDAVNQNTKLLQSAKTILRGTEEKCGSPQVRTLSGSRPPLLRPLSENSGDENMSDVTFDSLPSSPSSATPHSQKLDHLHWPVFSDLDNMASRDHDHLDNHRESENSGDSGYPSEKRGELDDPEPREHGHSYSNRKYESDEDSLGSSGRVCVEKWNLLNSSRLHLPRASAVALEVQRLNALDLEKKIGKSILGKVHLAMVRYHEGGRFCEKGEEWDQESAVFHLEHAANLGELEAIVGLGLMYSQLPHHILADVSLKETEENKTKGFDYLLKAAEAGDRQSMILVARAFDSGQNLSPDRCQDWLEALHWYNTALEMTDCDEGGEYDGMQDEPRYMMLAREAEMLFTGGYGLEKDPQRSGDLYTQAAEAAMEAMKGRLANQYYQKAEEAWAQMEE
SMILES,Activity [1],IC50 [2]
NC(=O)c1cc2c(=O)n(CC(=O)NCCCCNC(=O)COc3cccc4c3C(=O)N(C3CCC(=O)NC3=O)C4=O)c(=O)n(C3CC3)c2nc1N (centres undefined),inactive,–
N#CC1=C(N)SC(N)=C(C#N)C1c1ccccc1F,–,60 µM
CCn1c(=O)n(CC(=O)NCCCCNc2cccc3c2C(=O)N(C2CCC(=O)NC2=O)C3=O)c(=O)c2cc(C(N)=O)c(N)nc21 (centres undefined),35%,–
NC(=O)c1cc2c(=O)n(CC(=O)NCCNc3cccc4c3C(=O)N(C3CCC(=O)NC3=O)C4=O)c(=O)n(C3CC3)c2nc1N (centres undefined),inactive,–
CCn1c(=O)n(CC(=O)NCCCCCCNc2cccc3c2C(=O)N(C2CCC(=O)NC2=O)C3=O)c(=O)c2cc(C(N)=O)c(N)nc21 (centres undefined),20%,–
NC(=O)c1cc2c(=O)n(CC(=O)NCCNC(=O)COc3cccc4c3C(=O)N(C3CCC(=O)NC3=O)C4=O)c(=O)n(C3CC3)c2nc1N (centres undefined),inactive,–
NC(=O)c1cc2c(=O)n(CC(=O)NCCCCCCNC(=O)COc3cccc4c3C(=O)N(C3CCC(=O)NC3=O)C4=O)c(=O)n(C3CC3)c2nc1N (centres undefined),inactive,–

# Further lines, results first:
Activity [1],IC50 [2],SMILES
32%,–,CCn1c(=O)n(CC(=O)NCCCCCNC(=O)COc2cccc3c2C(=O)N(C2CCC(=O)NC2=O)C3=O)c(=O)c2cc(C(N)=O)c(N)cc21 (centres undefined)
15%,–,CCn1c(=O)n(CC(=O)NCCOCCNc2cccc3c2C(=O)N(C2CCC(=O)NC2=O)C3=O)c(=O)c2cc(C(N)=O)c(N)cc21 (centres undefined)
26%,–,CCn1c(=O)n(CC(=O)NCCCCNC(=O)COc2cccc3c2C(=O)N(C2CCC(=O)NC2=O)C3=O)c(=O)c2cc(C(N)=O)c(N)nc21 (centres undefined)
24%,–,CCn1c(=O)n(CC(=O)NCCCCCNc2cccc3c2C(=O)N(C2CCC(=O)NC2=O)C3=O)c(=O)c2cc(C(N)=O)c(N)cc21 (centres undefined)
15.4%,–,CCn1c(=O)n(CC(=O)NCCCNC(=O)COc2cccc3c2C(=O)N(C2CCC(=O)NC2=O)C3=O)c(=O)c2cc(C(N)=O)c(N)cc21 (centres undefined)
inactive,–,NC(=O)c1cc2c(=O)n(CC(=O)NCCCCCNC(=O)COc3cccc4c3C(=O)N(C3CCC(=O)NC3=O)C4=O)c(=O)n(C3CC3)c2cc1N (centres undefined)
10%,–,CCn1c(=O)n(CC(=O)NCCNC(=O)COc2cccc3c2C(=O)N(C2CCC(=O)NC2=O)C3=O)c(=O)c2cc(C(N)=O)c(N)nc21 (centres undefined)
